We go through 18 molecules from patent publication US6538015B1, “Anti-HIV pyrazole derivatives” (Hoffmann-La Roche Inc., priority 2001, dated 2003).

Like-named read-outs stand apart in the source and are kept apart here.

In one test the target is HIV-1 RT (Human immunodeficiency virus type 1 group M subtype B, UniProt P04585). Kind of test: HIV-1 Reverse Transcriptase Assay: Inhibitor IC50 Determination. It is filed as biochemical. On the procedure:
HIV-1 Reverse Transcriptase Assay: Inhibitor IC50 Determination
HIV-1 RT assay was carried out in 96-well Millipore filtermat NOB50 plates using purified recombinant enzyme and a poly(rA)/oligo(dT)16 template-primer in a total volume of 50 μL. The assay constituents were 50 mM Tris/HCl, 50 mM NaCl, 1 mM EDTA, 6 mM MgC2, 5 μM dTTP, 0.1 μCi [^3H] dTTP, 5 μg/ml poly (rA) pre annealed to 2.5 μg/ml oligo (dT)16 and a range of inhibitor concentrations in a final concentration of 10% DMSO. Reactions were initiated by adding 5 nM HIV-1 RT and after incubation at 37° C. for 30 min, they were stopped by the addition of 50 μl ice cold 20% TCA and allowed to precipitate at 4° C. for 30 min. The precipitates were collected by applying vacuum to the plate and sequentially washing with 2×200 μl of 10% TCA and 2×200 μl 70% ethanol. Finally the plates were dried and radioactivity counted in a Wallac Microbeta 1450 after the addition of 15 VI scintillation fluid per well. IC50's were calculated by plotting % inhibition versus log10 inhibitor concentrations.

A further test deals with HXB2-strain of HIV. In words: Antiviral assay: protection of HIV-infected MT4 cells from cell death (MTT). It is filed as cell-based. To be noted: Human immunodeficiency virus 1, 120 h; MT4 cells infected with HXB2-strain of HIV, 5 d, MTT cell viability. On the procedure: Anti-HIV antiviral activity was assessed using an adaptation of the method of Pauwels et al. {Pauwels et al., 1988, J Virol Methods 20:309-321}. The method is based on the ability of compounds to protect HIV-infected T lymphoblastoid cells (MT4 cells) from cell-death mediated by the infection. The endpoint of the assay was calculated as the concentration of compound at which the cell viability of the culture was preserved by 50% (‘50% inhibitory concentration’, IC50). The cell viability of a culture was determined by the uptake of soluble, yellow 3-[4,5-dimethylthiazol-2-yl]-2,5-diphenyltetrazolium bromide (MTT) and its reduction to a purple insoluble formazan salt. After solubilization, spectrophotometric methods were employed to measure the amount of formazan product.
MT4 cells were prepared to be in logarithmic-phase growth and a total of 2×10^6 cells infected with the HXB2-strain of HIV at a multiplicity of 0.0001 infectious units of virus per cell in a total volume of between 200-500 microliters. The cells were incubated with virus for one h at 37° C. before removal of virus. The cells are then washed in 0.01 M phosphate buffered saline, pH 7.2 before being resuspensed in culture medium for incubation in culture with serial dilutions of test compound. The culture medium used was RPMI 1640 without phenol red, supplemented with penicillin, streptomycin, L-glutamine and 10% fetal calf serum (GM10).
Test compounds were prepared as 2 mM solutions in dimethyl sulphoxide (DMSO). Four replicate, serial 2-fold dilutions in GM10 were then prepared and 50 microliters amounts placed in 96-well plates over a final nanomolar concentration range of 625-1.22. Fifty microliters GM10 and 3.5×10^4 infected cells were then added to each well. Control cultures containing no cells (blank), uninfected cells (100% viability; 4 replicates) and infected cells without compound (total virus-mediated cell death; 4 replicates) were also prepared. The cultures were then incubated at 37° C. in a humidified atmosphere of 5% CO2 in air for 5 d.
A fresh solution of 5 mg/mL MTT was prepared in 0.01 M phosphate buffered saline, pH 7.2 and 20 microliters added to each culture. The cultures were further incubated as before for 2 h. They were then mixed by pipetting up and down and 170 microliters of Triton X-100 in acidified isopropanol (10% v/v Triton X-100 in 1:250 mixture of concentrated HCl in isopropanol). When the formazan deposit was fully solubilized by further mixing, the absorbance (OD) of the cultures was measured at 540 nm and 690 nm wavelength (690 nm readings were used as blanks for artefacts between wells). The percent protection for each treated culture can be calculated from the equation: [formula]

Where [1] appears, read: purified recombinant enzyme, poly(rA)/oligo(dT)16 template-primer, 37° C. 30 min, read-out: RT IC50/nM.

Regarding `COC(=O)NCc1nn(C(C)C)c(Sc2cc(Cl)cc(Cl)c2)c1Cc1ccncc1`, the IC50 at HIV-1 RT (setting [1]) came to 525 nM.
For the molecule `CC(C)n1nc(COC(N)=O)c(Cc2cccs2)c1Sc1cc(Cl)cc(Cl)c1`, the IC50 in the test with HXB2-strain of HIV was determined as 30 nM; at HIV-1 RT (setting [1]), 211 nM.
Turning to `CC(C)n1nc(CO)c(Cc2ccc(F)c(F)c2)c1Sc1cc(Cl)cc(Cl)c1`, the IC50 on HIV-1 RT (setting [1]) is 123 nM.
The same measure, in the same setting: under `CC(C)n1nc(CO)c(COCc2cccc(C#N)c2)c1Sc1cc(Cl)cc(Cl)c1` stands 250 nM.
As to `CC(C)n1nc(COC(N)=O)c(Cc2ccncc2)c1Sc1cc(Cl)cc(Cl)c1`, the IC50 in the test with HXB2-strain of HIV worked out at 1 nM; at HIV-1 RT it was 32 nM.
On to `CC(C)n1nc(CN)c(Cc2ccncc2)c1Sc1cc(Cl)cc(Cl)c1`, for which the IC50 came to 7 nM in the test with HXB2-strain of HIV and 714 nM on HIV-1 RT (setting [1]).
In the case of `CC(C)n1nc(COC(N)=O)c(Cc2ccncc2)c1Sc1cc(Cl)cc(Br)c1`, the IC50 in the test on HXB2-strain of HIV was 3 nM; at HIV-1 RT (setting [1]), 31 nM.
In the same order, the values of `CCn1nc(CO)c(Cc2ccncc2)c1Sc1cc(Cl)cc(Cl)c1` are 30 nM and 183 nM.
Taken in the same sequence, the figures for `CC(C)n1nc(CNC(N)=O)c(Cc2ccncc2)c1Sc1cc(Cl)cc(Cl)c1` were 1 nM and 44 nM.
For `CC(C)n1nc(COC(N)=O)c(CO)c1Sc1cc(Cl)cc(Cl)c1`, the IC50 on HIV-1 RT (setting [1]) came out at 6300 nM.
Turning to `CC(C)n1nc(CNS(C)(=O)=O)c(Cc2ccncc2)c1Sc1cc(Cl)cc(Cl)c1`, on HIV-1 RT (setting [1]), the IC50 was found to be 7920 nM.
As for `CCc1c(COC(N)=O)nn(C(C)C)c1Sc1cc(Cl)cc(Cl)c1`, the IC50 at HIV-1 RT (setting [1]) is 61 nM.
Consider `COc1cc(Cc2c(CO)nn(C(C)C)c2Sc2cc(Cl)cc(Cl)c2)ccn1`, for which the figures for the IC50 in the test on HXB2-strain of HIV and at HIV-1 RT (setting [1]) were 38 nM and 51 nM, respectively.
`CC(C)n1nc(COC(N)=O)c(COCc2ccncc2)c1Sc1cc(Cl)cc(Cl)c1`: the IC50 amounted to 13 nM in the test on HXB2-strain of HIV and 99 nM at HIV-1 RT (setting [1]).
Taken in the same sequence, the figures for `CC(C)n1nc(CO)c(Cc2ccncc2)c1Sc1cc(F)cc(F)c1` were 6 nM and 206 nM.
As to `CC(C)n1nc(CO)c(Cc2ccncc2)c1Sc1cc(Cl)cc(Cl)c1`, the IC50 in the test with HXB2-strain of HIV worked out at 1.3 nM; on HIV-1 RT (setting [1]), 62 nM.
Regarding `CC(C)n1nc(CO)c(Cc2cccs2)c1Sc1cc(Cl)cc(Cl)c1`, the IC50 with HXB2-strain of HIV was found to be 93 nM; at HIV-1 RT (setting [1]) it was 434 nM.
Take `Cc1ncc(Br)c(Cc2c(CO)nn(C(C)C)c2Sc2cc(Cl)cc(Cl)c2)n1`: the IC50 at HIV-1 RT (setting [1]) was 518 nM.
